These are literature values, as cited in US12544334B2, “Metabolisable pH sensitive polymersomes” (UCL BUSINESS LTD, priority 2018, dated 2026).

For this series the following is noted: imidazole-bearing acid before conjugation to the cysteine N-terminus.

`O=C(O)Cc1c[nH]cn1` [4-imidazolacetic acid]: the pKa (as a rule, the pH at which an ionisable group is half protonated) is 6.6.

As for `O=C(O)Cn1ccnc1` [1H-imidazole-1-acetic acid], the pKa is listed as 6.8.
